Values quoted from earlier work as cited in patent US20020110580A1, “Nutritional composition for improving the efficacy of a lipase inhibitor” (priority 2000, published 2002).

Columns and labels:
[1] = individuals receiving CCK

CCCCCCCCCCC[C@@H](C[C@@H]1OC(=O)[C@H]1CCCCCC)OC(=O)[C@H](CC(C)C)NC=O [Orlistat, tetrahydrolipstatin]
gastric emptying of both the solid and fat phases of a mixed meal: accelerated | CCK release (mixed meal): decreased

B1: Cholecystokinin (peptide, UniProt P06307 21-115, looked up)
Cholecystokinin: QPVPPADPAGSGLQRAEEAPRRQLRVSQRTDGESRAHLGALLARYIQQARKAPSGRMSIVKNLQNLDPSHRISDRDYMGWMDFGRRSAEEYEYPS
modifications: Cholecystokinin
reduction in caloric intake [1]: 16-22%
